Test results published in patent US20080058213A1, “Benzoxazole Compounds” (priority 2004, published 2008).

Experiments:
Format in all cases: in vivo
corn [1] = experiment: Soil treatment test for upland field (Test Example 2): phytotoxicity to corn; details: soil treatment before germination, examined after 3 weeks
Description: (§1) Evaluation of phytotoxicity is shown in the following six grades, as compared with the condition of untreated control: • 0: normal growth • 1: little damaged • 2: low damaged • 3: medium damaged • 4: serious damaged • 5: complete killed.
(§2) Upland field soil was filled in 1/3,000 are pots, seeded with southern crabgrass (Digitaria ciliaris), common lambsquaters (Chenopodium album), slender amaranth (Amaranthus viridis), common purslane (Portulaca oleracea), velvetleaf (Abutilon theophrasti), wheat, corn and soybean. The seeds were covered up with the soil.
(§3) After placing the test pots in a glasshouse which was kept at an average temperature of 25° C. for 3 weeks, the herbicidal effect was examined.

[2] = system: Monochoria (Monochoria vaginalis); experiment: Weed control test for paddy field (Test Example 1): Monochoria; details: paddy pots, treated at 1.0 leaf stage of barnyard grass, examined after 3 weeks
Description: (§4) Paddy field soil was filled in 1/10,000 are pots, kneaded with adequate amounts of water and chemical fertilizer, seeded with barnyard grass (Echinochloa crusgalli), Monochoria (Monochoria vaginalis), Japanese bulrush (Scirpus juncoides) and flat sedge (Cyperus serotinus), and further transplanted with 2.0 leaf stage of rice plant. The pots were maintained under the water-filled condition to a depth of 3 cm.
(§5) Wettable powders containing the compounds (1) as identified in Table 1, which were formulated following Production Example 2, were diluted with adequate amount of water and applied to the pots dropwise with pippet at a prescribed dose of the active ingredients per are, at 1.0 leaf stage of the barnyard grass.
(§6) After placing the pots in a glasshouse which was controlled at an average temperature of 25° C. for 3 weeks, herbicidal effect was examined.
(§7) Evaluation of the herbicidal effect is shown in the following six grades, by comparing the condition of untreated control and growth inhibition (%): • 0: 0%-less than 20% • 1: 20%-less than 40% • 2: 40%-less than 60% • 3: 60%-less than 80% • 4: 80%-less than 100% • 5: 100%.

[3] = system: slender amaranth (Amaranthus viridis); experiment: Soil treatment test for upland field (Test Example 2): slender amaranth; details: soil treatment before germination, examined after 3 weeks
Description: as §7, §2
(§8) Wettable powders containing the object compounds (1) as identified in Table 1, which were formulated following Preparation Example 2, were diluted with adequate amount of water to secure the prescribed dose of the active ingredient, and uniformly sprayed onto the surface soil layer after the seeding and before germination of the weeds, at an application water of 15 liters per are.
as §3
(§9) Evaluations of the herbicidal effect and phytotoxicity were made in the manner similar to those in the above Test Example 1.

southern crabgrass = experiment: Foliage treatment test for upland field (Test Example 3): southern crabgrass; details: foliage treatment at 1.0-2.0 leaf stage of southern crabgrass, examined after 3 weeks
Description: as §7
(§10) Compost mixed soil was filled in 1/3,000 are pots, seeded with southern crabgrass, common lambsquaters, slender amaranth, common purslane, velvetleaf, wheat, corn and soybean. The seeds were covered up with the soil and cultured in a glasshouse kept at 25° C. on the average.
(§11) Wettable powders containing the object compounds (1) as identified in Table 1, which were formulated following Preparation Example 2, were diluted with water to the prescribed dose of the active ingredient, and uniformly sprayed onto the weeds at 1.0-2.0 leaf stage of the southern crabgrass at an application water of 15 liters per are.
(§12) After placing the test pots in a grasshouse kept at 25° C. on the average for 3 weeks, the herbicidal effect was examined.
(§13) Evaluation of the herbicidal effect was conducted in the similar manner to Test Example 1.

[4] = system: flat sedge (Cyperus serotinus); experiment: Weed control test for paddy field (Test Example 1): flat sedge; details: paddy pots, treated at 1.0 leaf stage of barnyard grass, examined after 3 weeks
Description: as §4, §5, §6, §7

[5] = system: common purslane (Portulaca oleracea); experiment: Soil treatment test for upland field (Test Example 2): common purslane; details: soil treatment before germination, examined after 3 weeks
Description: as §7, §2, §8, §3, §9

[6] = system: Japanese bulrush (Scirpus juncoides); experiment: Weed control test for paddy field (Test Example 1): Japanese bulrush; details: paddy pots, treated at 1.0 leaf stage of barnyard grass, examined after 3 weeks
Description: as §4, §5, §6, §7

[7] = system: southern crabgrass (Digitaria ciliaris); experiment: Soil treatment test for upland field (Test Example 2): southern crabgrass; details: soil treatment before germination, examined after 3 weeks
Description: as §7, §2, §8, §3, §9

[8] = system: velvetleaf (Abutilon theophrasti); experiment: Soil treatment test for upland field (Test Example 2): velvetleaf; details: soil treatment before germination, examined after 3 weeks
Description: as §7, §2, §8, §3, §9

soybean [9] = experiment: Foliage treatment test for upland field (Test Example 3): phytotoxicity to soybean; details: foliage treatment at 1.0-2.0 leaf stage of southern crabgrass, examined after 3 weeks
Description: as §1, §10, §12

wheat [10] = experiment: Foliage treatment test for upland field (Test Example 3): phytotoxicity to wheat; details: foliage treatment at 1.0-2.0 leaf stage of southern crabgrass, examined after 3 weeks
Description: as §1, §10, §12

corn [11] = experiment: Foliage treatment test for upland field (Test Example 3): phytotoxicity to corn; details: foliage treatment at 1.0-2.0 leaf stage of southern crabgrass, examined after 3 weeks
Description: as §1, §10, §12

soybean [12] = experiment: Soil treatment test for upland field (Test Example 2): phytotoxicity to soybean; details: soil treatment before germination, examined after 3 weeks
Description: as §1, §2, §3

wheat [13] = experiment: Soil treatment test for upland field (Test Example 2): phytotoxicity to wheat; details: soil treatment before germination, examined after 3 weeks
Description: as §1, §2, §3

[14] = system: barnyard grass (Echinochloa crusgalli); experiment: Weed control test for paddy field (Test Example 1): barnyard grass; details: paddy pots, treated at 1.0 leaf stage of barnyard grass, examined after 3 weeks
Description: as §4, §5, §6, §7

rice plant = experiment: Weed control test for paddy field (Test Example 1): phytotoxicity to rice plant; details: paddy pots, treated at 1.0 leaf stage of barnyard grass, examined after 3 weeks
Description: as §4, §5, §6, §1

[15] = system: common lambsquaters (Chenopodium album); experiment: Soil treatment test for upland field (Test Example 2): common lambsquaters; details: soil treatment before germination, examined after 3 weeks
Description: as §7, §2, §8, §3, §9

common lambsquaters = experiment: Foliage treatment test for upland field (Test Example 3): common lambsquaters; details: foliage treatment at 1.0-2.0 leaf stage of southern crabgrass, examined after 3 weeks
Description: as §7, §10, §11, §12, §13

velvetleaf = experiment: Foliage treatment test for upland field (Test Example 3): velvetleaf; details: foliage treatment at 1.0-2.0 leaf stage of southern crabgrass, examined after 3 weeks
Description: as §7, §10, §11, §12, §13

common purslane = experiment: Foliage treatment test for upland field (Test Example 3): common purslane; details: foliage treatment at 1.0-2.0 leaf stage of southern crabgrass, examined after 3 weeks
Description: as §7, §10, §11, §12, §13

slender amaranth = experiment: Foliage treatment test for upland field (Test Example 3): slender amaranth; details: foliage treatment at 1.0-2.0 leaf stage of southern crabgrass, examined after 3 weeks
Description: as §7, §10, §11, §12, §13

CCOC/C(=C\c1cccc(C(F)(F)F)c1)c1nc2cc(Cl)ccc2o1 [Compound 11]
Phytotoxicity corn (corn [1]; dose 2.5 g ai/a): 1
Phytotoxicity corn (corn [1]; dose 5 g ai/a): 1
Herbicidal Effect Monochoria vaginalis ([2]; dose 2.5 g ai/a): 5 (100%)
Herbicidal Effect Monochoria vaginalis ([2]; dose 5 g ai/a): 5 (100%)
Herbicidal Effect slender amaranth ([3]; dose 2.5 g ai/a): 5 (100%)
Herbicidal Effect slender amaranth ([3]; dose 5 g ai/a): 5 (100%)
Herbicidal Effect southern crabgrass (southern crabgrass; dose 2.5 g ai/a): 5 (100%)
Herbicidal Effect southern crabgrass (southern crabgrass; dose 5 g ai/a): 5 (100%)
Herbicidal Effect Flat sedge ([4]; dose 2.5 g ai/a): 3 (60%-less than 80%)
Herbicidal Effect Flat sedge ([4]; dose 5 g ai/a): 5 (100%)
Herbicidal Effect common purslane ([5]; dose 2.5 g ai/a): 5 (100%)
Herbicidal Effect common purslane ([5]; dose 5 g ai/a): 5 (100%)
Herbicidal Effect Japanese bulrush ([6]; dose 2.5 g ai/a): 4 (80%-less than 100%)
Herbicidal Effect Japanese bulrush ([6]; dose 5 g ai/a): 5 (100%)
Herbicidal Effect southern crabgrass ([7]; dose 2.5 g ai/a): 5 (100%)
Herbicidal Effect southern crabgrass ([7]; dose 5 g ai/a): 5 (100%)
Herbicidal Effect velvetleaf ([8]; dose 2.5 g ai/a): 3 (60%-less than 80%)
Herbicidal Effect velvetleaf ([8]; dose 5 g ai/a): 4 (80%-less than 100%)
Phytotoxicity soybean (soybean [9]; dose 2.5 g ai/a): 2
Phytotoxicity soybean (soybean [9]; dose 5 g ai/a): 1
Phytotoxicity wheat (wheat [10]; dose 2.5 g ai/a): 1
Phytotoxicity wheat (wheat [10]; dose 5 g ai/a): 1
Phytotoxicity corn (corn [11]; dose 2.5 g ai/a): 2
Phytotoxicity corn (corn [11]; dose 5 g ai/a): 1
Phytotoxicity soybean (soybean [12]; dose 2.5 g ai/a): 0
Phytotoxicity soybean (soybean [12]; dose 5 g ai/a): 0
Phytotoxicity wheat (wheat [13]; dose 2.5 g ai/a): 0
Phytotoxicity wheat (wheat [13]; dose 5 g ai/a): 0
Herbicidal Effect Barnyard grass ([14]; dose 2.5 g ai/a): 5 (100%)
Herbicidal Effect Barnyard grass ([14]; dose 5 g ai/a): 5 (100%)
Phytotoxicity Rice plant (rice plant; dose 2.5 g ai/a): 1
Phytotoxicity Rice plant (rice plant; dose 5 g ai/a): 1
Herbicidal Effect common lambsquaters ([15]; dose 2.5 g ai/a): 5 (100%)
Herbicidal Effect common lambsquaters ([15]; dose 5 g ai/a): 5 (100%)
Herbicidal Effect Common lambsquatters (common lambsquaters; dose 2.5 g ai/a): 5 (100%)
Herbicidal Effect Common lambsquatters (common lambsquaters; dose 5 g ai/a): 5 (100%)
Herbicidal Effect velvetleaf (velvetleaf; dose 2.5 g ai/a): 5 (100%)
Herbicidal Effect velvetleaf (velvetleaf; dose 5 g ai/a): 5 (100%)
Herbicidal Effect common purslane (common purslane; dose 2.5 g ai/a): 5 (100%)
Herbicidal Effect common purslane (common purslane; dose 5 g ai/a): 5 (100%)
Herbicidal Effect slender amaranth (slender amaranth; dose 2.5 g ai/a): 5 (100%)
Herbicidal Effect slender amaranth (slender amaranth; dose 5 g ai/a): 5 (100%)

COCC(=Cc1cccc(C(F)(F)F)c1)c1nc2cc(Br)ccc2o1 [Compound 39]
Phytotoxicity corn (corn [1]; dose 2.5 g ai/a): 0
Phytotoxicity corn (corn [1]; dose 5 g ai/a): 1
Herbicidal Effect Monochoria vaginalis ([2]; dose 2.5 g ai/a): 5 (100%)
Herbicidal Effect Monochoria vaginalis ([2]; dose 5 g ai/a): 5 (100%)
Herbicidal Effect slender amaranth ([3]; dose 2.5 g ai/a): 5 (100%)
Herbicidal Effect slender amaranth ([3]; dose 5 g ai/a): 5 (100%)
Herbicidal Effect southern crabgrass (southern crabgrass; dose 2.5 g ai/a): 4 (80%-less than 100%)
Herbicidal Effect southern crabgrass (southern crabgrass; dose 5 g ai/a): 5 (100%)
Herbicidal Effect Flat sedge ([4]; dose 2.5 g ai/a): 2 (40%-less than 60%)
Herbicidal Effect Flat sedge ([4]; dose 5 g ai/a): 3 (60%-less than 80%)
Herbicidal Effect common purslane ([5]; dose 2.5 g ai/a): 5 (100%)
Herbicidal Effect common purslane ([5]; dose 5 g ai/a): 5 (100%)
Herbicidal Effect Japanese bulrush ([6]; dose 2.5 g ai/a): 3 (60%-less than 80%)
Herbicidal Effect Japanese bulrush ([6]; dose 5 g ai/a): 4 (80%-less than 100%)
Herbicidal Effect southern crabgrass ([7]; dose 2.5 g ai/a): 4 (80%-less than 100%)
Herbicidal Effect southern crabgrass ([7]; dose 5 g ai/a): 5 (100%)
Herbicidal Effect velvetleaf ([8]; dose 2.5 g ai/a): 4 (80%-less than 100%)
Herbicidal Effect velvetleaf ([8]; dose 5 g ai/a): 5 (100%)
Phytotoxicity soybean (soybean [9]; dose 2.5 g ai/a): 1
Phytotoxicity soybean (soybean [9]; dose 5 g ai/a): 1
Phytotoxicity wheat (wheat [10]; dose 2.5 g ai/a): 0
Phytotoxicity wheat (wheat [10]; dose 5 g ai/a): 1
Phytotoxicity corn (corn [11]; dose 2.5 g ai/a): 0
Phytotoxicity corn (corn [11]; dose 5 g ai/a): 1
Phytotoxicity soybean (soybean [12]; dose 2.5 g ai/a): 0
Phytotoxicity soybean (soybean [12]; dose 5 g ai/a): 1
Phytotoxicity wheat (wheat [13]; dose 2.5 g ai/a): 0
Phytotoxicity wheat (wheat [13]; dose 5 g ai/a): 0
Herbicidal Effect Barnyard grass ([14]; dose 2.5 g ai/a): 5 (100%)
Herbicidal Effect Barnyard grass ([14]; dose 5 g ai/a): 5 (100%)
Phytotoxicity Rice plant (rice plant; dose 2.5 g ai/a): 0
Phytotoxicity Rice plant (rice plant; dose 5 g ai/a): 0
Herbicidal Effect common lambsquaters ([15]; dose 2.5 g ai/a): 5 (100%)
Herbicidal Effect common lambsquaters ([15]; dose 5 g ai/a): 5 (100%)
Herbicidal Effect Common lambsquatters (common lambsquaters; dose 2.5 g ai/a): 5 (100%)
Herbicidal Effect Common lambsquatters (common lambsquaters; dose 5 g ai/a): 5 (100%)
Herbicidal Effect velvetleaf (velvetleaf; dose 2.5 g ai/a): 4 (80%-less than 100%)
Herbicidal Effect velvetleaf (velvetleaf; dose 5 g ai/a): 5 (100%)
Herbicidal Effect common purslane (common purslane; dose 2.5 g ai/a): 5 (100%)
Herbicidal Effect common purslane (common purslane; dose 5 g ai/a): 5 (100%)
Herbicidal Effect slender amaranth (slender amaranth; dose 2.5 g ai/a): 5 (100%)
Herbicidal Effect slender amaranth (slender amaranth; dose 5 g ai/a): 5 (100%)
